Laboratory results as given in article PMC9127750, “Structure-based design of CDC42 effector interaction inhibitors for the treatment of cancer” (Cell reports, 2022).
Values joined by “and” are separate entries in the source; they are usually repeats but may differ in a detail not shown here. Identical values can stand only once.

System: WM3248 melanoma cells, 486 antibodies
Assay: Reverse phase protein arrays (RPPA);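 on RPPA AceCS1.R.V: ratio of treated to vehicle (0 µM) normalized linear protein signal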;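 on RPPA Akt1 pS473.R.V: ratio of treated to vehicle (0 µM) normalized linear protein signal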;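 on RPPA Akt1.R.V: ratio of treated to vehicle (0 µM) normalized linear protein signal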;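 on RPPA Ambra1 pS52.R.C: ratio of treated to vehicle (0 µM) normalized linear protein signal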;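 on RPPA Atg5.R.C: ratio of treated to vehicle (0 µM) normalized linear protein signal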;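 on RPPA Bim.R.V: ratio of treated to vehicle (0 µM) normalized linear protein signal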
Assay type: cell-based, Human
Conditions: 5 uM
From the text: Pellets were snap frozen in liquid nitrogen and shipped to MD Anderson Cancer Center core RPPA facility for RPPA analysis (Table S5). Three biological replicates for each sample were generated.
Nomenclatures on the RPPA heatmaps: name_of_antibody.species_of_antibody.status_of_antibody. V - antibody validated; C - validation of antibody in progress; Q - antibody nonspecific; E – under evaluation; antibodies raised in M - mouse, G - goat, R - rabbit, or T - rat.

SMILES: CN(C)c1cccc(Nc2cc(-c3ccccc3)nc(C3CCNCC3)n2)c1 [ARN22089, N1,N1-dimethyl-N3-(6-phenyl-2-(piperidin-4-yl)pyrimidin-4-yl)benzene-1,3-diamine]
- RPPA AceCS1.R.V (B.1): 1.006
- RPPA Akt1.R.V (B.1): 0.910
- RPPA Akt1_pS473.R.V (B.1): 0.894
- RPPA Akt2.R.V (B.1): 0.975
- RPPA Akt2_pS474.R.C (B.1): 1.016
- RPPA Akt_pS473.R.V (B.1): 0.899
- RPPA Akt_pT308.R.V (B.1): 0.827
- RPPA Ambra1_pS52.R.C (B.1): 0.978
- RPPA Annexin.I.M.V (B.1): 1.021
- RPPA Atg3.R.V (B.1): 0.935
- RPPA Atg4B.R.C (B.1): 0.930
- RPPA Atg5.R.C (B.1): 0.974
- RPPA Atg7.R.V (B.1): 0.761
- RPPA Aurora.A.R.C (B.1): 1.245
- RPPA Aurora.ABC_pT288_pT232_pT198.R.C (B.1): 0.869
- RPPA Axl.R.V (B.1): 0.622
- RPPA B7.H3.R.C (B.1): 0.992
- RPPA B.Raf.R.C (B.1): 0.902
- RPPA BAP1.M.V (B.1): 0.996
- RPPA BCL2A1.R.V (B.1): 0.908
- RPPA BMK1.Erk5_pT218_Y220.R.V (B.1): 1.119
- RPPA BRCA1.M.C (B.1): 0.934
- RPPA BRD4.R.V (B.1): 1.027
- RPPA Bad_pS112.R.V (B.1): 0.939
- RPPA Bak.R.C (B.1): 0.987
- RPPA Bax.R.V (B.1): 0.996
- RPPA Bcl.xL.R.V (B.1): 1.022
- RPPA Beclin.R.C (B.1): 1.111
- RPPA BiP.GRP78.M.C (B.1): 0.998
- RPPA Bid.R.C (B.1): 0.999
- RPPA Bim.R.V (B.1): 0.906
- RPPA X4E.BP1.R.V (B.1): 0.997
- RPPA X4E.BP1_pS65.R.V (B.1): 1.205
- RPPA X4E.BP1_pT37_T46.R.V (B.1): 1.170
- RPPA X14.3.3.zeta.R.V (B.1): 1.080
- RPPA X14.3.3βR.V (B.1): 1.052
- RPPA X53BP1.R.V (B.1): 0.907
- RPPA b.Catenin.R.V (B.1): 1.025
- RPPA b.Catenin_pT41_S45.R.V (B.1): 0.975
- RPPA c.Abl.R.V (B.1): 0.965
- RPPA c.Abl_pY412.R.C (B.1): 0.885
- RPPA c.IAP2.R.C (B.1): 1.018
- RPPA PREX1.R.V Average (average of 3): 1.056
- RPPA PYGB.R.V Average (average of 3): 0.877
- RPPA PYGM.M.C Average (average of 3): 0.831
- RPPA Puma.R.C Average (average of 3): 0.937
- RPPA RBM15.R.V Average (average of 3): 0.979
- RPPA RIP3.R.C Average (average of 3): 1.059
- RPPA RIP.R.C Average (average of 3): 0.875
- RPPA RPA32.R.V Average (average of 3): 0.880
- RPPA RPA32_pS4_S8.R.C Average (average of 3): 0.828
- RPPA RRM1.R.C Average (average of 3): 0.995
- RPPA RRM2.R.C Average (average of 3): 1.008
- RPPA RSK1.R.V Average (average of 3): 0.889
- RPPA RSK.R.C Average (average of 3): 1.023
- RPPA Rab25.R.V Average (average of 3): 1.051
- RPPA Rad17_pS645.R.V Average (average of 3): 1.079
- RPPA Rad23A.R.C Average (average of 3): 0.869
- RPPA Rad50.R.V Average (average of 3): 0.989
- RPPA Rad51.R.C Average (average of 3): 1.005
- RPPA Raptor.R.V Average (average of 3): 1.028
- RPPA Rb_pS807_S811.R.V Average (average of 3): 1.059
- RPPA Rheb.M.C Average (average of 3): 0.971
- RPPA Rictor.R.C Average (average of 3): 1.019
- RPPA Rictor_pT1135.R.V Average (average of 3): 1.106
- RPPA S6_pS235_S236.R.V Average (average of 3): 1.300
- RPPA S6_pS240_S244.R.V Average (average of 3): 1.738
- RPPA SCD.M.V Average (average of 3): 1.005
- RPPA SDHA.R.V Average (average of 3): 1.077
- RPPA SF2.R.V Average (average of 3): 1.028
- RPPA SFRP1.R.V Average (average of 3): 0.962
- RPPA SGK1.R.V Average (average of 3): 1.098
- RPPA SGK3.R.V Average (average of 3): 0.993
- RPPA SHP2.R.V Average (average of 3): 0.993
- RPPA SHP.2_pY542.R.C Average (average of 3): 0.941
- RPPA SIRPαR.V Average (average of 3): 0.994
- RPPA SLC1A5.R.C Average (average of 3): 0.898
- RPPA SOD1.M.V Average (average of 3): 1.002
- RPPA SOD2.R.V Average (average of 3): 1.033
- RPPA SOX7.R.V Average (average of 3): 0.921
- RPPA STING.R.V Average (average of 3): 1.006
- RPPA Shc_pY317.R.C Average (average of 3): 0.879
- RPPA Slfn11.G.C Average (average of 3): 0.785
- RPPA Smac.M.Q Average (average of 3): 0.922
- RPPA Smad1.R.V Average (average of 3): 1.113
- RPPA Smad3.R.V Average (average of 3): 0.963
- RPPA Smad4.R.V Average (average of 3): 1.032
- RPPA Snail.M.Q Average (average of 3): 1.012
- RPPA Sox2.R.V Average (average of 3): 0.986
- RPPA Sox17.R.V Average (average of 3): 0.955
- RPPA Src_pY416.R.V Average (average of 3): 0.979
- RPPA Src_pY527.R.V Average (average of 3): 1.190
- RPPA Stat1_pY701.R.V Average (average of 3): 0.966
- RPPA Stat3.R.C Average (average of 3): 1.005
- RPPA Stat3_pY705.R.C Average (average of 3): 0.914
- RPPA Stat5a.R.V Average (average of 3): 1.163
- RPPA Stathmin.1.R.V Average (average of 3): 0.991
- RPPA Syk.M.V Average (average of 3): 0.987
- RPPA Synaptophysin.R.C Average (average of 3): 1.017
- RPPA TAZ.R.V Average (average of 3): 0.956
- RPPA TEAD.R.C Average (average of 3): 1.012
- RPPA TFAM.R.V Average (average of 3): 1.014
- RPPA TFRC.R.V Average (average of 3): 0.971
- RPPA TIGAR.R.V Average (average of 3): 1.035
- RPPA TRAP1.M.V Average (average of 3): 0.973
- RPPA TRIM24.R.C Average (average of 3): 0.998
- RPPA TRIP13.R.V Average (average of 3): 0.948
- RPPA Tau.M.C Average (average of 3): 0.996
- RPPA Transglutaminase.M.V Average (average of 3): 0.913
- RPPA signal, antibody TSC1.R.C, Average (average of 3 replicates): 1.118
- RPPA signal, antibody TTF1.R.V, Average (average of 3 replicates): 0.922
- RPPA signal, antibody TUFM.R.V, Average (average of 3 replicates): 1.149
- RPPA signal, antibody Tuberin.R.V, Average (average of 3 replicates): 1.289
- RPPA signal, antibody Tuberin_pT1462.R.V, Average (average of 3 replicates): 0.994
- RPPA signal, antibody Twist.M.C, Average (average of 3 replicates): 0.991
- RPPA signal, antibody Tyro3.R.V, Average (average of 3 replicates): 0.915
- RPPA signal, antibody UBAC1.R.V, Average (average of 3 replicates): 0.933
- RPPA signal, antibody UBQLN4.M.C, Average (average of 3 replicates): 1.031
- RPPA signal, antibody UGT1A.M.V, Average (average of 3 replicates): 0.995
- RPPA signal, antibody ULK1_pS757.R.C, Average (average of 3 replicates): 1.103
- RPPA signal, antibody UQCRC2.M.C, Average (average of 3 replicates): 0.845
- RPPA signal, antibody UVRAG.R.C, Average (average of 3 replicates): 1.060
- RPPA signal, antibody VASP.R.V, Average (average of 3 replicates): 1.009
- RPPA signal, antibody VEGFR.2_pY1175.R.C, Average (average of 3 replicates): 0.987
- RPPA signal, antibody VHL.EPPK1.M.C, Average (average of 3 replicates): 0.993
- RPPA signal, antibody VHL.R.C, Average (average of 3 replicates): 0.983
- RPPA signal, antibody Vinculin.M.V, Average (average of 3 replicates): 0.997
- RPPA signal, antibody WIPI1.R.C, Average (average of 3 replicates): 0.904
- RPPA signal, antibody WTAP.R.V, Average (average of 3 replicates): 0.916
- RPPA signal, antibody Wee1.R.C, Average (average of 3 replicates): 1.196
- RPPA signal, antibody Wee1_pS642.R.C, Average (average of 3 replicates): 1.114
- RPPA signal, antibody XBP.1.G.C, Average (average of 3 replicates): 0.890
- RPPA signal, antibody XPA.M.V, Average (average of 3 replicates): 1.012
- RPPA signal, antibody XPF.R.C, Average (average of 3 replicates): 1.010
- RPPA signal, antibody XRCC1.R.C, Average (average of 3 replicates): 0.941
- RPPA signal, antibody YAP.R.C, Average (average of 3 replicates): 1.005
- RPPA signal, antibody YAP_pS127.R.V, Average (average of 3 replicates): 0.945
- RPPA signal, antibody YB1_pS102.R.V, Average (average of 3 replicates): 0.981
- RPPA signal, antibody YES1.R.V, Average (average of 3 replicates): 0.965
- RPPA signal, antibody YTHDF2.R.V, Average (average of 3 replicates): 0.921
- RPPA signal, antibody YTHDF3.R.C, Average (average of 3 replicates): 0.920
- RPPA signal, antibody ZAP.70.R.V, Average (average of 3 replicates): 1.002
- RPPA signal, antibody ZEB1.R.V, Average (average of 3 replicates): 0.953
- RPPA signal, antibody TSC1.R.C (individual replicates): 1.023 and 1.362
- RPPA signal, antibody TTF1.R.V (individual replicates): 0.931 and 1.030 and 0.806
- RPPA signal, antibody TUFM.R.V (individual replicates): 1.892 and 0.802 and 0.754
- RPPA signal, antibody Tuberin.R.V (individual replicates): 0.956 and 1.663 and 1.249
- RPPA signal, antibody Tuberin_pT1462.R.V (individual replicates): 0.926 and 1.194 and 0.864
- RPPA signal, antibody Twist.M.C (individual replicates): 1.006 and 0.964 and 1.005
- RPPA signal, antibody Tyro3.R.V (individual replicates): 1.127 and 0.928 and 0.691
- RPPA signal, antibody U.Histone.H2B.R.C (individual replicates): 0.941
- RPPA signal, antibody UBAC1.R.V (individual replicates): 0.942 and 1.076 and 0.780
- RPPA signal, antibody UBQLN4.M.C (individual replicates): 0.956 and 1.187
- RPPA signal, antibody UGT1A.M.V (individual replicates): 1.021 and 0.968 and 0.996
- RPPA signal, antibody ULK1_pS757.R.C (individual replicates): 1.126
- RPPA signal, antibody UQCRC2.M.C (individual replicates): 0.997 and 0.500
- RPPA signal, antibody UVRAG.R.C (individual replicates): 0.983 and 1.130
- RPPA signal, antibody VASP.R.V (individual replicates): 0.982 and 1.010
- RPPA signal, antibody VAV1.R.C (individual replicates): 0.910 and 1.057 and 1.165
- RPPA signal, antibody VEGFR.2.R.V (individual replicates): 0.908 and 1.050 and 1.150
- RPPA signal, antibody VEGFR.2_pY1175.R.C (individual replicates): 0.907 and 1.020
- RPPA signal, antibody VHL.EPPK1.M.C (individual replicates): 0.920
- RPPA signal, antibody VHL.R.C (individual replicates): 1.080 and 0.894 and 0.975
